# Patent publication US20200239530A1, “COMPOUNDS AND METHODS OF MODULATING PROTEIN DEGRADATION” (Vividion Therapeutics, Inc., priority 2017, published 2020)
# Read-outs that look alike come from different tables or passages of the source.
# Experiments:
# Experiment in all cases: Cysteine liganding, probe competition
# Type in all cases: binding
# UniProt Q6PJ21 = target: T1, UniProt Q6PJ21 (Homo sapiens, UniProt Q6PJ21); conditions: for inhibition at 100 µM / inhibition at 500 µM: read-out: percent_inhibition
# T1 construct: 200 μL of lysate containing 5 mg/ml proteome was treated with 2 μL of 100× compound stock; endogenous in cells
# T1 sequence (Q6PJ21 1-355): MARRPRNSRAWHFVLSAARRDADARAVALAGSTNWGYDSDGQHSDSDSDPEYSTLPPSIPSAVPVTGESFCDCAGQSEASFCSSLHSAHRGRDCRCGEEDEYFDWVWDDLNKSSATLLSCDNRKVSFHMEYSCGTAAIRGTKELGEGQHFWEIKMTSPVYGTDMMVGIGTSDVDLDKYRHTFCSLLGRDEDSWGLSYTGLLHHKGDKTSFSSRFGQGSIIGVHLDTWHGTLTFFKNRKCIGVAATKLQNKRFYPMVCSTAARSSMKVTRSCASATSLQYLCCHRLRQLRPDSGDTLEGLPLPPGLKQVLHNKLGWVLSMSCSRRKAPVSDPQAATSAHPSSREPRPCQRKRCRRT
# Source text: (§1) The following 96-well sample prep protocol was used for sample preparation.
# UniProt O14508 = target: T2, UniProt O14508 (Homo sapiens, UniProt O14508); conditions: for inhibition at 100 µM: read-out: percent_inhibition
# T2 construct: 200 μL of lysate containing 5 mg/ml proteome was treated with 2 μL of 100× compound stock; endogenous in cells
# T2 sequence (O14508 1-198): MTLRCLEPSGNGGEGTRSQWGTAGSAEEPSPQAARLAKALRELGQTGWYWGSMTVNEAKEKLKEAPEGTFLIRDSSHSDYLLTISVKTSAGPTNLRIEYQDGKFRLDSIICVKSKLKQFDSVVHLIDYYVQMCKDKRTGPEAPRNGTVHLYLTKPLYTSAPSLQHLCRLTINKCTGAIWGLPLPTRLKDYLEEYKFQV
# Source text: as §1
# UniProt Q8WV44 = target: T3, UniProt Q8WV44 (Homo sapiens, UniProt Q8WV44)
# T3 construct: 200 μL of lysate containing 5 mg/ml proteome was treated with 2 μL of 100× compound stock; endogenous in cells
# T3 sequence (Q8WV44 1-630): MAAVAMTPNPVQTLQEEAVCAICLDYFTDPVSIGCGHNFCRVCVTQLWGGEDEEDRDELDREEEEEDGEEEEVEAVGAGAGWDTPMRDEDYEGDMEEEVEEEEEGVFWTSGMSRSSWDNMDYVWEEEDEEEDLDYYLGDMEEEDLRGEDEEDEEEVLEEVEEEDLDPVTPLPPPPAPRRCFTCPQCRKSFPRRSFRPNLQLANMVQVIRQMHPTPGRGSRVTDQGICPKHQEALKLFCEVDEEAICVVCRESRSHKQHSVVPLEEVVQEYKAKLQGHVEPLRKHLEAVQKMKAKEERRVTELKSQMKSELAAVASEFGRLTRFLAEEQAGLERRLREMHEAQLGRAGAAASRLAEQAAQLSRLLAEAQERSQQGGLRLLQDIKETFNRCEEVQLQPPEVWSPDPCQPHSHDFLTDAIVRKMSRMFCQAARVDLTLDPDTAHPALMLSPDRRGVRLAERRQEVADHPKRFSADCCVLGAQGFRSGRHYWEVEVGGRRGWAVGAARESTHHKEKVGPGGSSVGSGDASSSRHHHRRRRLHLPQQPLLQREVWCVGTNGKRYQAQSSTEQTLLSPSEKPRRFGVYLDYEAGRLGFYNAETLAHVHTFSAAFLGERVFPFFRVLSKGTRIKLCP
# Source text: as §1
# [1] = target: ANAPC16 Anaphase-promoting complex subunit 16 (Homo sapiens, UniProt Q96DE5); parameters: endogenous in cells
# Experimental: Cells were resuspended in cold PBS on ice and sonicated with a probe sonicator to achieve lysis. 200 μL of lysate containing 5 mg/ml proteome was treated with 2 μL of 100× compound stock in a 2-mL deep-well plate. The treated lysate was subsequently incubate at 25° C. for 1 hr with shaking at 600 rpm. The treated lysate was further incubated with 2 μL of 10 mM desthiobiotin iodoacetamide probe at 25° C. for 1 hr with shaking at 600 rpm. Next, the lysate was further treat with 20 μL of solution of PBS containing 11 mM MgSO4 and 2.5% Turbonuclease stock and incubated at 25° C. for 20 minutes with shaking at 600 rpm. 1.7 mL ice-cold acetone was added to each well and incubated at −20° C. for 2 hr, followed by max speed (4200 rpm) spin for 45 min. Acetone was then decanted and the plates were blotted to remove acetone. The plates were then dried in open air for 20 minutes. After drying, the plates were then covered with foil seal and stored at −80° C. overnight.
# The next day, samples were re-suspended in 90 μL of solution of 9M urea, 50 mM ammonium bicarbonate and 10 mM DTT by incubating at 65C for 20 min with shaking at 1500 rpm. Next, samples were cooled to 37° C. and then 10 μL of 500 mM iodoacetamide solution (92.48 mg/ml) was added. The samples were then incubated at 37° C. for 30 min with shaking at 600 rpm.
# ZEBA desalting plates were equilibrated 4 times using 250 μL of 2M urea, 50 mM ammonium bicarbonate solution followed by centrifugation at 1500 rpm for 2 minutes. After equilibration was complete, samples were applied to ZEBA desalting plate and spin at 1500 rpm for 2 min on top of 1 mL 96-well deep-well collection plate to buffer exchange samples. 4 μL of solution containing 25 mM CaCl2 and 0.25 mg/mL trypsin was added to the plate and the plate was then incubated at 37° C. for 2 hrs with shaking at 600 rpm. 300 μL of solution containing 5% high-capacity streptavidin agarose slurry in 25 mM Tris-HCl pH 7.5, 150 mM NaCl, and 0.1% NP-40 then added. The plate was incubated at 25° C. for 2 hrs with shaking at 600 rpm. Samples were transferred to 25 μm filter plate and spin at 1000 rpm for 2 min. Samples were then washed 3 times with 0.75 mL of wash buffer (25 mM Tris-HCl pH 7.5, 150 mM NaCl, and 0.1% NP-40) followed by washing 3 times with 0.75 mL PBS, and then 4 times with 0.75 mL water. After the washing step, samples were eluted into polypropylene 96-well plate by addition of 250 µL of 50% MeCN/water, 0.1% formic acid and allowed to gravity drip for 10 min, followed by centrifugation at 1000 rpm for 2 min. Speedvac was used to dry the plates at about 45° C. for […]. Then the plates were covered with foil seal and stored at −20° C.
# Samples were resuspended by addition of 20 μl of 12.5% ACN, 0.1% formic acid solution, covered with foil seal, and incubated at 42° C. for 10 minutes with shaking at 600 rpm. Then add 30 μL of 0.1% formic acid solution was added and the plate was covered and incubated at 42° C. for 10 minutes with shaking at 600 rpm. Seal plate was then sealed with a 96-well silicon mat for analysis.
"inhibition at 500 µM (UniProt Q8WV44; 500 uM, read-out: KB05_500 uM_percent_inhibition) [%]","inhibition at 100 µM ([1]; 100 uM, UniProt Q96DE5, read-out: KB05_100 uM_percent_inhibition) [%]","inhibition at 500 µM ([1]; 500 uM, UniProt Q96DE5, read-out: KB05_500 uM_percent_inhibition) [%]",SMILES,inhibition at 100 µM (UniProt Q6PJ21; 100 uM) [%],inhibition at 500 µM (UniProt Q6PJ21; 500 uM) [%],inhibition at 100 µM (UniProt O14508) [%],"inhibition at 100 µM (UniProt Q8WV44; 100 uM, read-out: KB02_100 uM_percent_inhibition) [%]","inhibition at 100 µM ([1]; 100 uM, UniProt Q96DE5, read-out: KB02_100 uM_percent_inhibition) [%]","inhibition at 500 µM ([1]; 500 uM, UniProt Q96DE5, read-out: KB02_500 uM_percent_inhibition) [%]","Liganded ([1]; ANAPC16 Res# 55, uniprot Q96DE5)",percent_inhibition (UniProt Q6PJ21; 100 uM) [%],percent_inhibition (UniProt Q6PJ21; 500 uM) [%],percent_inhibition (UniProt O14508; 100 uM) [%],KB03_100 uM_percent_inhibition (UniProt Q8WV44; 100 uM) [%],"KB03_100 uM_percent_inhibition ([1]; 100 uM, UniProt Q96DE5) [%]","KB03_500 uM_percent_inhibition ([1]; 500 uM, UniProt Q96DE5) [%]",500 Max ([1]; uniprot Q96DE5),"100 Max ([1]; uniprot Q96DE5, unit assumed) [%]"
,,,COc1ccc2c(c1)CCCN2C(=O)CCl [KB02],5,8,14,15,46,85,YES,,,,,,,,
50,37,83,C=CC(=O)N(c1ccccc1)c1ccc(Br)cc1 [KB05],4,30,48,,,,,,,,,,,,
,,,O=C(CCl)Nc1cc(C(F)(F)F)cc(C(F)(F)F)c1 [KBO3],,,,,,,,25,52,30,31,52,82,36.5,20.4
